Assays:
[1] = tested on: Human immunodeficiency virus 1; assay: Inhibition of HIV1 viral replication infected in human C8166 cells assessed as suppression of virion-associated p24 antigen production after 4 days by ELISA; format: functional, organism-based; conditions: Human immunodeficiency virus 1, C8166, 96 h
[2] = Cytotoxicity against human […] cells after 4 days by MTT assay; format: cell-based

EC50 [1]	SMILES	CC50 at 96 h [2]
42.2 µM	CS[C@@]12C[C@H]3C(=O)C[C@H](O)[C@H](O)[C@H]3N1C(=O)[C@]1(SC)C[C@H]3C(=O)C[C@H](O)[C@H](O)[C@H]3N1C2=O [EPICOCCIN H]	> 100 µM
13.5 µM	CS[C@@]12C[C@H]3C(=O)CC[C@H](O)[C@H]3N1C(=O)[C@]1(SC)C[C@H]3C(=O)CC[C@H](O)[C@H]3N1C2=O [EPICOCCIN G]	> 100 µM
27.9 µM	CN1C(=O)[C@H](Cc2ccccc2)NC(=O)/C1=C/c1ccccc1 [DIPHENYLALAZINE A]	> 100 µM

— ChEMBL document CHEMBL1153744, “Diketopiperazines from the Cordyceps-colonizing fungus Epicoccum nigrum” (J Nat Prod, 2009)
